From patent US11542295B2, “Use of 20-hydroxyecdysone and the derivatives thereof in the treatment of myopathies” (BIOPHYTIS, priority 2017, dated 2023)

Legend:
[1] = test system: tibialis anterior muscle of C57BL10 mdx mice; assay: Maximum absolute isometric strength of the tibialis anterior muscle (in situ); format: in vivo, mouse; details: 50 mg/kg*day, two months of treatment
Procedure: Twelve-week-old […] gene pool (wild mice referred to as “C57” in the figures) and […] mdx (mouse model of Duchenne muscular dystrophy, referred to as “mdx” in the figures) male mice, produced at Charles Rivers, were used. Two groups of mdx were chronically exposed per os either to BIO101 (number of mice n=9) or to BIO103 (number of mice n=9) at a dose of 50 mg/kg*day. A group of C57 mice (number of mice n=5) and a group of mdx mice (number of mice n=15) received the vehicle, i.e. no treatment. The animals of all of the groups were tested for their functional capacity (exertion tolerance test) after two months of treatment. The exertion tolerance test consists of measuring the maximum distance travelled (in-toto activity; FIGS. 1A and 1B). Furthermore, measurements of the maximum absolute isometric strength of the tibialis anterior muscle (in-situ activity; FIGS. 2A and 2B) were made after two months of treatment. The two-month oral treatment consists of force-feeding for five days a week and in drinking water two days a week. An assessment of in-situ contractility of the tibialis anterior muscle is carried out at the end of the protocol, i.e. after two months of treatment. […] The strength is measured during contractions in response to electrical stimulation (frequency of 75-150 Hz, duration of 500 ms). […] The maximum absolute isometric tetanic strength is measured.

[2] = test system: AKT; assay: AKT phosphorylation in human DMD myocytes (Western Blot); format: cell-based; details: 10 μM, 10 minutes to 24 hours, vs untreated control
Procedure: (§1) Human DMD skeletal muscle cells (KM571DMD1OFL Cl1) were differentiated for 5 days then optionally incubated with BIO101 at 10 μM for periods of between 10 minutes and 24 hours.
(§2) A densitometric analysis of results of at least 6 independent Western Blot experiments described the effects of BIO101 on the phosphorylation of AKT (FIG. 8A) and ERK1/2 (FIG. 8B) is shown, *p<0.05 versus the untreated control.

[3] = test system: tibialis anterior muscle of C57BL10 mdx mice; assay: Histological study of tibialis anterior muscle stained with haematoxylin eosin (lesion profiles); format: in vivo, mouse; details: 50 mg/kg*day, two months, HE staining
Procedure: (§3) Twelve-week-old C57BL10 gene pool (wild mice referred to as “C57” in the figures) and C57BL10 mdx (mouse model of Duchenne muscular dystrophy, referred to as “mdx” in the figures) male mice, produced at Charles Rivers, were used. Two groups of mdx were chronically exposed per os either to BIO101 (number of mice n=9) or to BIO103 (number of mice n=9) at a dose of 50 mg/kg*day. A group of C57 mice (number of mice n=5) and a group of mdx mice (number of mice n=15) received the vehicle, i.e. no treatment. The animals of all of the groups were tested for their functional capacity (exertion tolerance test) after two months of treatment. The exertion tolerance test consists of measuring the maximum distance travelled (in-toto activity; FIGS. 1A and 1B). Furthermore, measurements of the maximum absolute isometric strength of the tibialis anterior muscle (in-situ activity; FIGS. 2A and 2B) were made after two months of treatment.
(§4) An assessment of muscle fibrosis by histological study is carried out on the tibialis anterior muscle (abbreviated as TA). Histological sections (7 μm) are produced and stained either with haematoxylin eosin (HE) or with Sirius Red (SR).
An anatomopathological study of the sections of tibialis anterior muscle stained with HE makes it possible to assess the degree of muscle fibre involvement. Representative images of tibialis anterior muscle sections stained with HE obtained from C57 animals (FIG. 4A), mdx animals (FIG. 4B), mdx animals treated with BIO101 (FIG. 4C) and mdx animals treated with BIO103 (FIG. 4D) are shown. The scale bars correspond to 200 μm. The TA muscles of C57 mice show no muscle lesions (FIG. 4A). The TA muscles of untreated mdx mice show a wide diversity of lesion profiles: moderate anisocytosis with numerous necrotic fibres. […] The A sign indicates the inflammatory foci with which fibrosis is associated. […] Indeed, 67% (6 out of 9 TA muscles) of the muscles treated with BIO103 can be classified in this category.

[4] = test system: Human DMD skeletal muscle cells (KM571DMD1OFL Cl1); assay: Cellular respiration (oxygen consumption rate, Seahorse XF Analyzer); format: cell-based; details: two days of treatment
Procedure: Human DMD skeletal muscle cells (KM571DMD1OFL Cl1) were differentiated for 4 days, then incubated in the presence or absence of BIO101 (1 or 5 μM) for 2 days. The oxygen consumption rate, also known as OCR, which reflects the mitochondrial respiration of the cells was measured using a Seahorse XF Analyzer (registered trademark, Agilent).
The basal respiration is measured directly whereas the maximum respiration is measured after adding oligomycin followed by FCCP (FIG. 9A and FIG. 9B). The results are referenced to the OCR of the untreated cells and are shown in the form of means plus or minus the standard error (SEM).

[5] = test system: ERK1/2; assay: ERK1/2 phosphorylation in human DMD myocytes (Western Blot); format: cell-based; details: 10 μM, 10 minutes to 24 hours, vs untreated control
Procedure: as §1, §2

[6] = test system: tibialis anterior muscle of C57BL10 mdx mice; assay: Histological study of tibialis anterior muscle stained with Sirius Red (fibrotic area); format: in vivo, mouse; details: 50 mg/kg*day, two months, p=0.0709
Procedure: as §3, §4
An anatomopathological analysis of the sections of tibialis anterior muscle stained with SR makes it possible to quantify the fibrotic area. […]

CC(C)(O)CC[C@@H](O)[C@](C)(O)[C@H]1CC[C@@]2(O)C3=CC(=O)[C@@H]4C[C@@H](O)[C@@H](O)C[C@]4(C)[C@H]3CC[C@]12C [BIO101, 20-hydroxyecdysone]
increase in the maximum absolute isometric strength of the tibialis anterior muscle compared to mdx animals receiving the vehicle [1]: +15.3%
p-AKT (phosphorylation of AKT) [2]: significant increase
TA muscles with minor lesion profile [3]: 37.5%
TA muscles with pronounced lesion profile (anisocytosis, dispersed necrotic fibres and variable inflammation) [3]: 62.5%
basal respiration increase (OCR) vs untreated cells ([4]; 1 μM, p<0.01): 20%
maximum respiration increase (OCR after oligomycin and FCCP) vs untreated cells ([4]; 1 μM, p<0.05): 51%
maximum respiration increase (OCR after oligomycin and FCCP) vs untreated cells ([4]; 5 μM, p =0.13): 22%
basal respiration increase (OCR) vs untreated cells ([4]; 5 μM, p<0.001): 21%
p-ERK1/2 (phosphorylation of ERK1/2) [5]: significant increase

CCSCC(=O)[C@H]1CC[C@@]2(O)C3=CC(=O)[C@@H]4C[C@@H](O)[C@@H](O)C[C@]4(C)C3CC[C@]12C (stereo partly drawn) [BIO103, (2S,3R,5R,10R,13R,14S,17S)-17-(2-ethylsulfanylacetyl)-2,3,14-trihydroxy-10,13-dimethyl-2,3,4,5,9,11,12,15,16,17-decahydro-1H-cyclopenta[a]phenanthren-6-one]
increase in the maximum absolute isometric strength of the tibialis anterior muscle compared to mdx animals receiving the vehicle [1]: +22.5%
onset of fibrosis (percentage area corresponding to fibrosis) compared to the control mdx group [6]: clearly tends to prevent
TA muscles with minor lesion profile [3]: 67%
TA muscles with pronounced lesion profile tending towards atrophy [3]: 11%
TA muscles with pronounced lesion profile with a somewhat necrotic tendency [3]: 11%
TA muscles with severe lesion profile (large acute necrotic plaques with no regeneration) [3]: 11%
